System: HCT116 cells
Experiment: Protein modification by Iniparib-biotin in cells (streptavidin-HRP blot, avidin pull-down LC-MS/MS)
Type: cell-based, human
Protocol: MDA-MB-453 and HCT116 cells were first pre-treated or not for 48 h with 1 mM BSO. Afterwards cells were incubated in serum-containing conditioned medium with increasing concentrations of Iniparib-biotin derivative for up to 4 hours.
Membranes were blotted with either Streptavidin-HRP (GE Healthcare), monoclonal antibody against GAPDH (Santa Cruz Biotechnology), polyclonal antibody raised against GSTP1 (Santa Cruz Biotechnology) or with MitoProfile® Total OXPHOS human antibody cocktail (Abcam). Detection of reactive bands was performed by enhanced chemiluminescence (West DURA substrate, Pierce, Thermo scientific).
BSO pretreated HCT116 cells were incubated for 4 h with 100 μM Iniparib-biotin. Then clarified octyl-glucoside lysates were combined with monomeric avidin-agarose and mixed overnight at 4° C. […] Final wash was performed with 0.15% octyl-glucoside, 50 mM NaCl, 10 mM Tris-HCl, pH 7.5 prior to Iniparib-biotin modified proteins' elution in 0.1 M glycine, pH 2.8, 20 min at 20° C. After pH adjustment to 8.5 by Ammonium Bicarbonate addition (50 mM final), eluted proteins were reduced (10 mM DTT, 30 min at 56° C.), alkylated (30 mM iodoacetamide, 30 min at 20° C.) and digested with trypsin (10 μg, overnight at 37° C.). Tryptic Iniparib-biotin modified peptides were further purified by monomeric avidin pull-down as described above except that the buffer used was 50 mM NaCl, 10 mM Tris-HCl, pH 7.5. After elution in 0.1 M glycine, pH 2.8, 20 min at 20° C., enriched Iniparib-biotin modified peptides were analyzed by LC-MS/MS. LC-MS/MS experiments were performed on a NanoAcquity UPLC (Waters) coupled to a hybrid LTQ Orbitrap Velos mass spectrometer (Thermo Fisher Scientific) equipped with a nanoelectrospray source. Tryptic digests were loaded onto an UPLC Trap column (Symmetry C18, 5 μm, 180 μm×20 mm, Waters) and washed with 0.2% formic acid at 20 μL/min for 5 min. […] The exact parent mass is the ^12C isotope ion mass of the most intense isotopic pattern detected on the high resolution Orbitrap MS parallel scan and included in the MS/MS selection window.

Compound: O=C(CCCC[C@@H]1SC[C@@H]2NC(=O)N[C@@H]21)NCCNC(=O)c1ccc(I)c([N+](=O)[O-])c1 [Iniparib-biotin, 4-iodo-3-nitro-N-(2-(5-((3 aS,4S,6aR)-2-oxohexahydro-1H-thieno[3,4-d]imidazol-4-yl)pentanamido)ethyl)benzamide]
- cellular proteins bearing Iniparib adducts (BSO pretreated HCT116, 100 μM 4 h, MS/MS qualitative analysis): more than 200 cellular proteins
- protein labeling with Iniparib-biotin (HCT116 cells depleted of GSH, up to 100 μM, up to 4 h): strong protein labeling
- protein modifications by Iniparib-biotin (HCT116 cells not depleted of GSH): barely detectable
